What was measured:
Homo sapiens = species: Homo sapiens; test: Antiproliferative activity was evaluated by the 72 hr MTT cell viability assay using human colon carcinoma cells (GC3).; assay type: functional
Mus musculus = species: Mus musculus; test: Compound was tested for its antitumor activity in murine pancreatic adenocarcinoma PO3 model at the maximum tolerated dose(MTD); assay type: functional

Row | Structure (SMILES) | IC50 (Homo sapiens; Homo sapiens, MTT, 72 h) | T/C (Mus musculus) | IC50 (Homo sapiens; mtt)
1 | COc1ccc(C[C@H]2NC(=O)/C=C/C[C@@H]([C@H](C)[C@H]3O[C@@H]3c3ccccc3)OC(=O)[C@H](CC(C)C)OC(=O)[C@H](C)CNC2=O)cc1Cl [CRYPTOPHYCIN A] | 0.24 nM | < 5% | –
2 | COc1ccc(C[C@H]2NC(=O)/C=C/C[C@@H]([C@H](C)[C@H]3O[C@@H]3c3ccccc3)OC(=O)[C@H](CC(C)C)OC(=O)[C@H](C(C)C)NC2=O)cc1Cl | 306 nM | – | –
3 | COc1ccc(C[C@H]2NC(=O)/C=C/C[C@@H]([C@H](C)[C@H]3O[C@@H]3c3ccccc3)OC(=O)[C@H](CC(C)C)OC(=O)C[C@@H](C)NC2=O)cc1Cl (stereo in doubt; 12b) | – | – | 0.03 nM
4 | COc1ccc(C[C@H]2NC(=O)/C=C/C[C@@H]([C@H](C)[C@H]3O[C@@H]3c3ccccc3)OC(=O)[C@H](CC(C)C)OC(=O)[C@@H]3CCCCC3NC2=O)cc1Cl (some centres not stated) | 1.3 nM | – | –
5 | COc1ccc(C[C@H]2NC(=O)/C=C/C[C@@H]([C@H](C)[C@H]3O[C@@H]3c3ccccc3)OC(=O)[C@H](CC(C)C)OC(=O)[C@H](C)NC2=O)cc1Cl | 13 nM | – | –
6 | COc1ccc(C[C@H]2NC(=O)/C=C/C[C@@H]([C@H](C)[C@H]3O[C@@H]3c3ccccc3)OC(=O)[C@H](CC(C)C)OC(=O)C[C@@H](CC(C)C)NC2=O)cc1Cl | 3 nM | – | –
7 | COc1ccc(C[C@H]2NC(=O)/C=C/C[C@@H]([C@H](C)[C@H]3O[C@@H]3c3ccccc3)OC(=O)[C@H](CC(C)C)OC(=O)[C@H](CC(C)C)NC2=O)cc1Cl | 320 nM | – | –
8 | COc1ccc(C[C@H]2NC(=O)/C=C/C[C@@H]([C@H](C)[C@H]3O[C@@H]3c3ccccc3)OC(=O)[C@H](CC(C)C)OC(=O)C[C@@H](c3ccccc3)NC2=O)cc1Cl | 0.94 nM | – | –
9 | COc1ccc(C[C@H]2NC(=O)/C=C/C[C@@H]([C@H](C)[C@H]3O[C@@H]3c3ccccc3)OC(=O)[C@H](CC(C)C)OC(=O)[C@@H]3CCCN3C2=O)cc1Cl | > 1500 nM | – | –
10 | COc1ccc(C[C@H]2NC(=O)/C=C/C[C@@H]([C@H](C)[C@H]3O[C@@H]3c3ccccc3)OC(=O)[C@H](CC(C)C)OC(=O)C[C@@H](Cc3ccccc3)NC2=O)cc1Cl | 5.2 nM | – | –
11 | COc1ccc(C[C@H]2NC(=O)/C=C/C[C@@H]([C@H](C)[C@H]3O[C@@H]3c3ccccc3)OC(=O)[C@H](CC(C)C)OC(=O)C[C@@H](C)NC2=O)cc1Cl (stereo in doubt; 12a) | – | – | 0.4 nM
12 | COc1ccc(C[C@H]2NC(=O)/C=C/C[C@@H]([C@H](C)[C@H]3O[C@@H]3c3ccccc3)OC(=O)[C@H](CC(C)C)OC(=O)[C@H](Cc3ccccc3)NC2=O)cc1Cl | 1000 nM | – | –
13 | COc1ccc(C[C@H]2NC(=O)/C=C/C[C@@H]([C@H](C)[C@H]3O[C@@H]3c3ccccc3)OC(=O)[C@H](CC(C)C)OC(=O)c3ccccc3NC2=O)cc1Cl | 870 nM | – | –
14 | COc1ccc(C[C@H]2NC(=O)/C=C/C[C@@H]([C@H](C)[C@H]3O[C@@H]3c3ccccc3)OC(=O)[C@H](CC(C)C)OC(=O)C(C)(C)CNC2=O)cc1Cl [CRYPTOPHYCIN 52] | 0.2 nM | < 5% | –
15 | COc1ccc(C[C@H]2NC(=O)/C=C/C[C@@H]([C@H](C)[C@H]3O[C@@H]3c3ccccc3)OC(=O)[C@H](CC(C)C)NC(=O)C[C@@H](C)NC2=O)cc1Cl | 0.06 nM | – | –
